According to patent US20100298144A1, “HERBICIDAL COMBINATION” (BAYER CROPSCIENCE AG, priority 2008, published 2010):

Test system: Polygonum convolvulus
Assay: Post-emergence action against weeds, greenhouse pot test, visual scoring
Assay type: in vivo
Conditions: 11 days after application, 0%=no control, 100%=complete control
Experimental: Seeds or rhizome pieces of monocotyledonous and dicotyledonous weeds were placed in sandy loam in plastic pots, covered with soil and cultivated in a greenhouse under good growth conditions. Three weeks after sowing, the test plants were treated at the 2-4 leaf stage. The compounds according to the invention, formulated as wettable powders or as emulsion concentrates, were sprayed onto the green parts of the plants at various dosages using a water application rate of from 100 to 800 I/ha (converted). After the test plants had been left to stand in the greenhouse for 10 to 28 days under optimum growth conditions, the effect of the preparations was scored visually in comparison to untreated controls.
0%=no control 100%=complete control

Compound: sodium salt of 2-iodo-N-[(4-methoxy-6-methyl-1,3,5-triazin-2-yl)carbamoyl]benzenesulfonamide [Compound A-2]
- Polygonum convolvulus Control in % (Table 1, 2.5 g of ai/ha): 10%
- Polygonum convolvulus Control in % (Table 2, 2.5 g of ai/ha): 20%

Compound: glyphosate-ammonium [Compound B1-15]
- Polygonum convolvulus Control in % (Table 2, 360 g of ai/ha): 55%

Compound: CP(=O)(O)CCC(N)C(=O)O (stereo not shown) [Compound B1-8, glufosinate-ammonium]
- Polygonum convolvulus Control in % (Table 1, 150 g of ai/ha): 20%
